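Exposure lasted 48 hours, with cells grown in 96-well plates and compounds tested at five concentrations. At the GI50, growth is halved.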 The source made the active and inactive calls. Rule as the data show it: active = GI50 up to about 1.1 µM and inactive = higher.
Legend:
Assay in all cases: NCI-60 cell line screen, 48 h
DLD-1 = tested on: DLD-1
SK-MEL-5 = tested on: SK-MEL-5
SF-539 = tested on: SF-539
SK-MEL-2 = tested on: SK-MEL-2
OVCAR-3 = tested on: OVCAR-3
786-0 = tested on: 786-0
SW-620 = tested on: SW-620
UACC-257 = tested on: UACC-257
SK-OV-3 = tested on: SK-OV-3
NCI-H23 = tested on: NCI-H23
COLO 205 = tested on: COLO 205
UACC-62 = tested on: UACC-62
KM12 = tested on: KM12
SK-MEL-28 = tested on: SK-MEL-28
RPMI-8226 = tested on: RPMI-8226
MOLT-4 = tested on: MOLT-4
Malme-3M = tested on: Malme-3M
IGROV-1 = tested on: IGROV-1
CAKI-1 = tested on: CAKI-1
Hs-578T = tested on: Hs-578T

C#CCN(N=O)C(=O)ON1C(=O)CCC1=O
GI50 (DLD-1): > 100 µM (inactive) | GI50 (SK-MEL-5): > 100 µM (inactive) | GI50 (SF-539): > 100 µM (inactive) | GI50 (SK-MEL-2): > 100 µM (inactive) | GI50 (OVCAR-3): > 100 µM (inactive) | GI50 (786-0): > 100 µM (inactive) | GI50 (SW-620): > 100 µM (inactive) | GI50 (UACC-257): > 100 µM (inactive) | GI50 (SK-OV-3): > 100 µM (inactive) | GI50 (NCI-H23): > 100 µM (inactive) | GI50 (COLO 205): > 100 µM (inactive) | GI50 (UACC-62): > 100 µM (inactive) | GI50 (KM12): > 100 µM (inactive) | GI50 (SK-MEL-28): > 100 µM (inactive) | GI50 (RPMI-8226): > 100 µM (inactive) | GI50 (MOLT-4): > 100 µM (inactive) | GI50 (Malme-3M): > 100 µM (inactive) | GI50 (IGROV-1): > 100 µM (inactive)

Cc1ccccc1C(C#N)C(=O)C(=O)Nc1nc([N+](=O)[O-])cs1 (centres undefined)
GI50 (DLD-1): > 100 µM (inactive) | GI50 (SK-MEL-5): > 100 µM (inactive) | GI50 (SF-539): > 100 µM (inactive) | GI50 (CAKI-1): > 100 µM (inactive) | GI50 (OVCAR-3): > 100 µM (inactive) | GI50 (786-0): > 100 µM (inactive) | GI50 (SW-620): > 100 µM (inactive) | GI50 (UACC-257): > 100 µM (inactive) | GI50 (SK-OV-3): > 100 µM (inactive) | GI50 (NCI-H23): > 100 µM (inactive) | GI50 (UACC-62): > 100 µM (inactive) | GI50 (KM12): > 100 µM (inactive) | GI50 (SK-MEL-28): > 100 µM (inactive) | GI50 (Malme-3M): > 100 µM (inactive) | GI50 (IGROV-1): > 100 µM (inactive)

CCN(CC)CCSc1c2ccccc2nc2c(OC)ccc(OC)c12
GI50 (DLD-1): 1.99 µM (inactive) | GI50 (SK-MEL-5): 4.66 µM (inactive) | GI50 (CAKI-1): 3.1 µM (inactive) | GI50 (786-0): 4.13 µM (inactive) | GI50 (SW-620): 2.08 µM (inactive) | GI50 (UACC-257): 3.78 µM (inactive) | GI50 (SK-OV-3): 36 µM (inactive) | GI50 (NCI-H23): 14.6 µM (inactive) | GI50 (COLO 205): 2.72 µM (inactive) | GI50 (UACC-62): 3.77 µM (inactive) | GI50 (KM12): 5.79 µM (inactive) | GI50 (SK-MEL-28): 2.94 µM (inactive) | GI50 (RPMI-8226): 2.23 µM (inactive) | GI50 (MOLT-4): 1.65 µM (inactive) | GI50 (Malme-3M): > 41.2 µM (inactive) | GI50 (IGROV-1): 6.32 µM (inactive)

COC1=CC(=O)C(Br)=CC1=O
GI50 (DLD-1): 32.3 µM (inactive) | GI50 (SK-MEL-5): 17.9 µM (inactive) | GI50 (CAKI-1): 18.4 µM (inactive) | GI50 (SK-MEL-2): 20.5 µM (inactive) | GI50 (786-0): 18.6 µM (inactive) | GI50 (SW-620): 23.2 µM (inactive) | GI50 (UACC-257): 17.3 µM (inactive) | GI50 (SK-OV-3): > 100 µM (inactive) | GI50 (NCI-H23): 18.9 µM (inactive) | GI50 (COLO 205): 16.7 µM (inactive) | GI50 (UACC-62): 17.6 µM (inactive) | GI50 (SK-MEL-28): 19.5 µM (inactive) | GI50 (RPMI-8226): 21.6 µM (inactive) | GI50 (MOLT-4): 3.3 µM (inactive) | GI50 (Malme-3M): 21 µM (inactive) | GI50 (IGROV-1): 17.3 µM (inactive)

Cc1c(CNc2ccc(Cl)c(Cl)c2Cl)cnc2nc(N)nc(N)c12
GI50 (SK-MEL-5): 0.263 µM (active) | GI50 (SF-539): 0.483 µM (active) | GI50 (CAKI-1): > 100 µM (inactive) | GI50 (SK-MEL-2): 27.1 µM (inactive) | GI50 (Hs-578T): 17.8 µM (inactive) | GI50 (OVCAR-3): 13.6 µM (inactive) | GI50 (786-0): 0.0918 µM (active) | GI50 (SW-620): 0.179 µM (active) | GI50 (UACC-257): 0.236 µM (active) | GI50 (SK-OV-3): > 35.6 µM (inactive) | GI50 (NCI-H23): 0.255 µM (active) | GI50 (COLO 205): 5.35 µM (inactive) | GI50 (UACC-62): 0.0771 µM (active) | GI50 (KM12): 4.99 µM (inactive) | GI50 (SK-MEL-28): 5.33 µM (inactive) | GI50 (RPMI-8226): 2.08 µM (inactive) | GI50 (MOLT-4): 0.164 µM (active) | GI50 (Malme-3M): 3.12 µM (inactive) | GI50 (IGROV-1): 0.499 µM (active)

Cc1ccc(C(=O)/C=C2/Nc3ccc([N+](=O)[O-])cc3N/C2=C/C(=O)c2ccc(C)cc2)cc1
GI50 (SK-MEL-5): > 100 µM (inactive) | GI50 (SF-539): 52.8 µM (inactive) | GI50 (CAKI-1): 87.5 µM (inactive) | GI50 (SK-MEL-2): 66.5 µM (inactive) | GI50 (Hs-578T): 23.2 µM (inactive) | GI50 (OVCAR-3): > 100 µM (inactive) | GI50 (786-0): 60.7 µM (inactive) | GI50 (SW-620): > 100 µM (inactive) | GI50 (UACC-257): > 100 µM (inactive) | GI50 (SK-OV-3): 41.1 µM (inactive) | GI50 (NCI-H23): 37.7 µM (inactive) | GI50 (COLO 205): > 100 µM (inactive) | GI50 (UACC-62): 24.7 µM (inactive) | GI50 (KM12): > 100 µM (inactive) | GI50 (SK-MEL-28): > 100 µM (inactive) | GI50 (RPMI-8226): > 100 µM (inactive) | GI50 (MOLT-4): > 100 µM (inactive) | GI50 (Malme-3M): > 100 µM (inactive) | GI50 (IGROV-1): 42.5 µM (inactive)

COc1ccc(/N=N/c2c(C)c(C#N)c(=S)n(C3OC(CO)C(O)C(O)C3O)c2-c2ccccc2)cc1 (centres undefined)
GI50 (SK-MEL-5): 11.5 µM (inactive) | GI50 (SF-539): 42.7 µM (inactive) | GI50 (CAKI-1): 24.2 µM (inactive) | GI50 (SK-MEL-2): 33 µM (inactive) | GI50 (Hs-578T): 21.5 µM (inactive) | GI50 (OVCAR-3): 24.7 µM (inactive) | GI50 (786-0): 32 µM (inactive) | GI50 (SW-620): 26.1 µM (inactive) | GI50 (UACC-257): 48.8 µM (inactive) | GI50 (SK-OV-3): 27.2 µM (inactive) | GI50 (NCI-H23): 28.4 µM (inactive) | GI50 (COLO 205): 47.5 µM (inactive) | GI50 (UACC-62): 18.8 µM (inactive) | GI50 (KM12): 43.5 µM (inactive) | GI50 (SK-MEL-28): 25.3 µM (inactive) | GI50 (RPMI-8226): 36.1 µM (inactive) | GI50 (MOLT-4): 9.04 µM (inactive) | GI50 (Malme-3M): 30.6 µM (inactive) | GI50 (IGROV-1): 30.4 µM (inactive)

CC(C)(C)C(=O)Nc1cccc2oc(-c3ccccc3)cc12
GI50 (DLD-1): > 100 µM (inactive) | GI50 (SF-539): > 100 µM (inactive) | GI50 (CAKI-1): > 100 µM (inactive) | GI50 (SK-MEL-2): > 100 µM (inactive) | GI50 (OVCAR-3): > 100 µM (inactive) | GI50 (786-0): > 100 µM (inactive) | GI50 (SW-620): > 100 µM (inactive) | GI50 (UACC-257): > 100 µM (inactive) | GI50 (SK-OV-3): > 100 µM (inactive) | GI50 (NCI-H23): > 100 µM (inactive) | GI50 (COLO 205): > 100 µM (inactive) | GI50 (UACC-62): > 100 µM (inactive) | GI50 (KM12): > 100 µM (inactive) | GI50 (SK-MEL-28): > 100 µM (inactive) | GI50 (RPMI-8226): > 100 µM (inactive) | GI50 (MOLT-4): 49.7 µM (inactive) | GI50 (IGROV-1): > 100 µM (inactive)

From ChEMBL document CHEMBL1201862, “PubChem BioAssay data set” (2004)
